Source: the supplement of paper PMC10307832

Tests used:
Assay in all cases: relative viability (nuclei count vs DMSO), 5 days (fraction); higher = more cells survive
[1] = tested on: HCC-366
Method in brief: (§1)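 Lung cancer cell lines in 1536-well plates were dosed by pin tool the day after seeding, either with one drug alone or with a fixed anchor-drug dose plus five library-drug doses (not always all listed) in √10 steps. After 5 days, cells were fixed and their nuclei stained in one step (final 0.05% Triton X-100, 1% formaldehyde, 1 ug/ml Hoechst), then counted on 4× images. Relative viability is the nuclei count in treated wells divided by that in vehicle wells. Values are medians of duplicate plates.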

[2] = tested on: HCC-44
Method in brief: as §1

[3] = tested on: LOU-NH91
Method in brief: as §1

[4] = tested on: NCI-H1437
Method in brief: as §1

[5] = tested on: NCI-H1648
Method in brief: as §1

[6] = tested on: NCI-H2085
Method in brief: as §1

[7] = tested on: NCI-H3122
Method in brief: as §1

Structure (SMILES): O=c1cc(N2CCOCC2)oc2c(-c3cccc4c3sc3ccccc34)cccc12 + CC(=O)c1c(C)c2cnc(Nc3ccc(N4CCNCC4)cn3)nc2n(C2CCCC2)c1=O [Palbociclib] (partner 0.5 µM)
- relative viability ([1]; first compound 0.01 µM): 0.371
- relative viability ([1]; first compound 0.03162 µM): 0.417
- relative viability ([1]; first compound 0.1 µM): 0.409
- relative viability ([1]; first compound 0.3162 µM): 0.367
- relative viability ([1]; first compound 1 µM): 0.382
- relative viability ([2]; first compound 0.01 µM): 1.01
- relative viability ([2]; first compound 0.03162 µM): 1.02
- relative viability ([2]; first compound 0.1 µM): 0.955
- relative viability ([2]; first compound 0.3162 µM): 0.991
- relative viability ([2]; first compound 1 µM): 1.02
- relative viability ([3]; first compound 0.01 µM): 0.525
- relative viability ([3]; first compound 0.03162 µM): 0.527
- relative viability ([3]; first compound 0.1 µM): 0.522
- relative viability ([3]; first compound 0.3162 µM): 0.537
- relative viability ([3]; first compound 1 µM): 0.574
- relative viability ([4]; first compound 0.01 µM): 0.3
- relative viability ([4]; first compound 0.03162 µM): 0.312
- relative viability ([4]; first compound 0.1 µM): 0.282
- relative viability ([4]; first compound 0.3162 µM): 0.31
- relative viability ([4]; first compound 1 µM): 0.281
- relative viability ([5]; first compound 0.03162 µM): 0.261
- relative viability ([5]; first compound 0.1 µM): 0.273
- relative viability ([5]; first compound 0.3162 µM): 0.284
- relative viability ([5]; first compound 1 µM): 0.292
- relative viability ([6]; first compound 0.01 µM): 0.467
- relative viability ([6]; first compound 0.03162 µM): 0.455
- relative viability ([6]; first compound 0.1 µM): 0.492
- relative viability ([6]; first compound 0.3162 µM): 0.512
- relative viability ([6]; first compound 1 µM): 0.452
- relative viability ([7]; first compound 0.01 µM): 0.171
- relative viability ([7]; first compound 0.03162 µM): 0.183
- relative viability ([7]; first compound 0.1 µM): 0.167
- relative viability ([7]; first compound 0.3162 µM): 0.177
- relative viability ([7]; first compound 1 µM): 0.161

Structure (SMILES): CCN(CC)CCCCNc1ncc2cc(-c3cc(OC)cc(OC)c3)c(NC(=O)NC(C)(C)C)nc2n1 + CC(=O)c1c(C)c2cnc(Nc3ccc(N4CCNCC4)cn3)nc2n(C2CCCC2)c1=O [Palbociclib] (partner 0.5 µM)
- relative viability ([1]; first compound 0.01 µM): 0.364
- relative viability ([1]; first compound 0.03162 µM): 0.406
- relative viability ([1]; first compound 0.1 µM): 0.504
- relative viability ([1]; first compound 0.3162 µM): 0.438
- relative viability ([1]; first compound 1 µM): 0.441
- relative viability ([2]; first compound 0.01 µM): 1.02
- relative viability ([2]; first compound 0.03162 µM): 1.07
- relative viability ([2]; first compound 0.1 µM): 0.987
- relative viability ([2]; first compound 0.3162 µM): 1.04
- relative viability ([2]; first compound 1 µM): 1
- relative viability ([3]; first compound 0.01 µM): 0.572
- relative viability ([3]; first compound 0.03162 µM): 0.546
- relative viability ([3]; first compound 0.1 µM): 0.557
- relative viability ([3]; first compound 0.3162 µM): 0.491
- relative viability ([3]; first compound 1 µM): 0.412
- relative viability ([4]; first compound 0.01 µM): 0.319
- relative viability ([4]; first compound 0.03162 µM): 0.331
- relative viability ([4]; first compound 0.1 µM): 0.326
- relative viability ([4]; first compound 0.3162 µM): 0.303
- relative viability ([4]; first compound 1 µM): 0.285
- relative viability ([5]; first compound 0.01 µM): 0.288
- relative viability ([5]; first compound 0.03162 µM): 0.292
- relative viability ([5]; first compound 0.1 µM): 0.237
- relative viability ([5]; first compound 0.3162 µM): 0.274
- relative viability ([5]; first compound 1 µM): 0.238
- relative viability ([6]; first compound 0.01 µM): 0.466
- relative viability ([6]; first compound 0.03162 µM): 0.45
- relative viability ([6]; first compound 0.1 µM): 0.443
- relative viability ([6]; first compound 0.3162 µM): 0.468
- relative viability ([6]; first compound 1 µM): 0.457
- relative viability ([7]; first compound 0.01 µM): 0.184
- relative viability ([7]; first compound 0.03162 µM): 0.175
- relative viability ([7]; first compound 0.1 µM): 0.157
- relative viability ([7]; first compound 0.3162 µM): 0.194
- relative viability ([7]; first compound 1 µM): 0.179

Structure (SMILES): O=c1cc(-c2cccc3c2Sc2ccccc2S3)oc(N2CCOCC2)c1 + CC(=O)c1c(C)c2cnc(Nc3ccc(N4CCNCC4)cn3)nc2n(C2CCCC2)c1=O [Palbociclib] (partner 0.5 µM)
- relative viability ([1]; first compound 0.08 µM): 0.436
- relative viability ([1]; first compound 0.253 µM): 0.349
- relative viability ([1]; first compound 0.8 µM): 0.487
- relative viability ([1]; first compound 2.53 µM): 0.401
- relative viability ([1]; first compound 8 µM): 0.51
- relative viability ([2]; first compound 0.08 µM): 0.965
- relative viability ([2]; first compound 0.253 µM): 0.918
- relative viability ([2]; first compound 0.8 µM): 0.919
- relative viability ([2]; first compound 2.53 µM): 0.958
- relative viability ([2]; first compound 8 µM): 0.962
- relative viability ([3]; first compound 0.08 µM): 0.528
- relative viability ([3]; first compound 0.253 µM): 0.518
- relative viability ([3]; first compound 0.8 µM): 0.543
- relative viability ([3]; first compound 2.53 µM): 0.535
- relative viability ([3]; first compound 8 µM): 0.571
- relative viability ([4]; first compound 0.08 µM): 0.302
- relative viability ([4]; first compound 0.253 µM): 0.344
- relative viability ([4]; first compound 0.8 µM): 0.276
- relative viability ([4]; first compound 2.53 µM): 0.25
- relative viability ([4]; first compound 8 µM): 0.285
- relative viability ([5]; first compound 0.253 µM): 0.324
- relative viability ([5]; first compound 0.8 µM): 0.281
- relative viability ([5]; first compound 8 µM): 0.302
- relative viability ([6]; first compound 0.08 µM): 0.431
- relative viability ([6]; first compound 0.253 µM): 0.508
- relative viability ([6]; first compound 0.8 µM): 0.471
- relative viability ([6]; first compound 2.53 µM): 0.467
- relative viability ([6]; first compound 8 µM): 0.412
- relative viability ([7]; first compound 0.08 µM): 0.169
- relative viability ([7]; first compound 0.253 µM): 0.2
- relative viability ([7]; first compound 0.8 µM): 0.208
- relative viability ([7]; first compound 2.53 µM): 0.188
- relative viability ([7]; first compound 8 µM): 0.192

Structure (SMILES): O=c1cc(N2CCOCC2)oc2c(-c3cccc4c3sc3ccccc34)cccc12 + Nc1nc2[nH]cc(CCc3ccc(C(=O)N[C@@H](CCC(=O)O)C(=O)O)cc3)c2c(=O)[nH]1 [Pemetrexed] (partner 0.2 µM)
- relative viability ([1]; first compound 0.01 µM): 0.159
- relative viability ([1]; first compound 0.03162 µM): 0.181
- relative viability ([1]; first compound 0.1 µM): 0.149
- relative viability ([1]; first compound 0.3162 µM): 0.144
- relative viability ([1]; first compound 1 µM): 0.186
- relative viability ([2]; first compound 0.01 µM): 0.667
- relative viability ([2]; first compound 0.03162 µM): 0.643
- relative viability ([2]; first compound 0.1 µM): 0.587
- relative viability ([2]; first compound 0.3162 µM): 0.591
- relative viability ([2]; first compound 1 µM): 0.664
- relative viability ([3]; first compound 0.01 µM): 0.39
- relative viability ([3]; first compound 0.03162 µM): 0.384
- relative viability ([3]; first compound 0.1 µM): 0.377
- relative viability ([3]; first compound 0.3162 µM): 0.386
- relative viability ([3]; first compound 1 µM): 0.425
- relative viability ([4]; first compound 0.01 µM): 0.327
- relative viability ([4]; first compound 0.03162 µM): 0.292
- relative viability ([4]; first compound 0.1 µM): 0.313
- relative viability ([4]; first compound 0.3162 µM): 0.314
- relative viability ([4]; first compound 1 µM): 0.314
- relative viability ([5]; first compound 0.03162 µM): 0.681
- relative viability ([5]; first compound 0.1 µM): 0.894
- relative viability ([5]; first compound 0.3162 µM): 0.667
- relative viability ([5]; first compound 1 µM): 0.583
- relative viability ([6]; first compound 0.01 µM): 0.905
- relative viability ([6]; first compound 0.03162 µM): 0.851
- relative viability ([6]; first compound 0.1 µM): 0.849
- relative viability ([6]; first compound 0.3162 µM): 0.865
- relative viability ([6]; first compound 1 µM): 0.867
- relative viability ([7]; first compound 0.01 µM): 0.207
- relative viability ([7]; first compound 0.03162 µM): 0.206
- relative viability ([7]; first compound 0.1 µM): 0.197
- relative viability ([7]; first compound 0.3162 µM): 0.21
- relative viability ([7]; first compound 1 µM): 0.205
